The subject of assay [1] is Human IL-6 secretion, Normal Human Epidermal Keratinocytes (NHEK). The assay can be described thus: Human IL-6 production in UVB-irradiated NHEK (ELISA). It is filed as cell-based. Conditions: Table 9, 0.20%, Positive Control 100%; for Human IL-6 Content, Average: 40 mJ/cm^2 UVB; for Human IL-6 Content, Entry 1: passage 2 + 2, 40 mJ/cm^2 UVB; for Human IL-6 Content, Entry 2 / Human IL-6 Content, Entry 3: passage 2 + 3, 40 mJ/cm^2 UVB. The method, then: (§1) Normal Human Epidermal Keratinocytes (NHEK) (PromoCell No. C-12008);
(§2) Positive Control: 40 mJ/cm^2 UVB,
(§3) Negative Control: No UVB irradiation;
(§4) a. Rinse the confluent NHEK cells with sterile D-PBS then trypsinize all cells and perform cell counting.
(§5) b. Dilute the cell density to 4˜8E+04/mL and seed 0.5 mL cell liquid (equals to 2˜4E+04 cells) each well in 24 well plate.
(§6) c. Incubate NHEK cells at 37° C., 5% CO2 until subconfluence.
(§7) d. Prepared dosing solution of testing material in Complete Medium: 0.4%, 0.2%, 0.1%, 0.05%.
(§8) e. Rinse the NHEK cells with sterile D-PBS and discard rinse buffer. Add 400 μL of controls and testing materials in different concentrations into NHEK cells in 24 well plates.
(§9) f. Pre-incubate NHEK cells with testing material at 37° C., 5% CO2 for about 6 hours.
(§10) g. After pre-incubating for about 6 hours, wash the NHEK cells with sterile D-PBS for twice then add […] sterile D-PBS for UVB irradiation.
(§11) h. UVB intensity is about 2300 μW/cm^2 and UVB energy is about 40 mJ/cm^2.
(§12) i. After UVB irradiation, discard sterile D-PBS and wash again. Add 400 μL of the same dosing solution in to each wells.
(§13) j. Post-incubate at 37° C., 5% CO2 for about 18 hours.
(§14) k. After post-incubating for 18 hours, collect the supernatant of controls and testing materials.
(§15) l. Determine the IL-6/IL-8 content of the supernatant by R&D ELISA kit as mentioned previously.
(§16) Normal Human Epidermal Keratinocytes (NHEK) were treated by the above-mentioned glycine derivatives for evaluating their anti-inflammatory effect on keratinocytes in this example.
Background: An ELISA detects its analyte on a solid surface through an enzyme-linked reagent.

In assay [2] the test system is Human IL-8 secretion, Normal Human Epidermal Keratinocytes (NHEK). The assay can be described thus: Human IL-8 production in UVB-irradiated NHEK (ELISA). The class given is cell-based. The settings on record: Table 10, 0.20%; for Human IL-8 Content, Average: 40 mJ/cm2 UVB; for Human IL-8 Content, Entry 1: passage 2 + 3, 40 mJ/cm2 UVB; for Human IL-8 Content, Entry 2: passage 2 + 4, 40 mJ/cm2 UVB; for Human IL-8 Content, Entry 3: passage 2 + 5, 40 mJ/cm2 UVB; for Human IL-8 Content, Entry 4: passage 2 + 6, 40 mJ/cm2 UVB. As to the method:
as §1, §2, §3, §4, §5, §6, §7, §8, §9, §10, §11, §12, §13, §14, §15, §16

SMILES strings stand for the structures. Square brackets hold non-standard residues; d marks the D form. Peptide text beside a SMILES is read from it. Sar = CNCC(=O)O

Turning to `CC(=O)NCC(=O)N(C)CC(=O)O` [Ac-Gly-Sar, [(2-Acetylamino-acetyl)-methyl-amino]-acetic acid] (Ac-Gly-[Sar]-OH), in assay [1], the “Human IL-6 Content, Average” value was 14%; the “Human IL-6 Content, Entry 1” value is listed as 14%; the “Human IL-6 Content, Entry 2” value came out at 21%; the “Human IL-6 Content, Entry 3” value was 7%. In assay [2], the “Human IL-8 Content, Average” value is given as 76%; the “Human IL-8 Content, Entry 1” value is recorded as 73%; the “Human IL-8 Content, Entry 2” value is 70%; the “Human IL-8 Content, Entry 3” value is 74%. Moreover, the “Human IL-8 Content, Entry 4” value in assay [2] was 88%.
As for `CC(=O)NCC(=O)NCCCC(=O)O` [Ac-Gly-GABA, 4-(2-Acetylamino-acetylamino)-butyric acid], in assay [1], the “Human IL-6 Content, Average” value worked out at 14%; the “Human IL-6 Content, Entry 1” value is on record as 11%; the “Human IL-6 Content, Entry 2” value was determined as 25%; the “Human IL-6 Content, Entry 3” value worked out at 6%. Also, in assay [2], the “Human IL-8 Content, Average” value was 70%; the “Human IL-8 Content, Entry 1” value came out at 59%; the “Human IL-8 Content, Entry 2” value is reported as 70%; the “Human IL-8 Content, Entry 3” value came to 64%. In addition, in assay [2], the “Human IL-8 Content, Entry 4” value turned out to be 87%.
As for `CC(=O)NCC(=O)NCC(=O)O` [Ac-Gly-Gly, (2-acetylamino-acetylamino)-acetic acid], in assay [1], the “Human IL-6 Content, Average” value was determined as 20%; the “Human IL-6 Content, Entry 1” value stood at 12%; the “Human IL-6 Content, Entry 2” value is 16%; the “Human IL-6 Content, Entry 3” value is reported as 33%. For the same compound, in assay [2], the “Human IL-8 Content, Average” value worked out at 59%; the “Human IL-8 Content, Entry 2” value is 68%; the “Human IL-8 Content, Entry 3” value is given as 54%; the “Human IL-8 Content, Entry 4” value is reported as 53%.

For the origin of these results see patent US20140314697A1, “Method for Inhibiting Inflammation and Reducing Melanophilin Expression with Glycine Derivatives And the Composition Thereof” (CORUM INC., priority 2013, published 2014).
